Data: patent US20260315497A1, “COMPOSITION FOR TREATING EPILEPSY” (CanaQuest Medical Corp., priority 2022, published 2026)

Tests used:
Format in all cases: in vivo, Male, CF-1 male mice
[1] = Maximal Electroshock Seizure (MES) Model in mice, Initial Tests; conditions: Mus musculus, ip, MES 50 mA, 60 Hz, 0.2 sec, i.p., 2 hours after injection, 10 mice per dose, read-out: ED50 (effective dose to protect 50% of mice)
Experimental: The composition was tested using the Maximal Electroshock Seizure (MES) Model. This is an established procedure to provide an indication of a compound's ability to prevent seizure spread.
(§1) Subjects Male, CF-1 male mice (18-25 grams) were used as subjects. They were housed under standard conditions in the vivarium at the CCBR. They were given 2 days (minimum) to acclimate before testing began.
(§2) Drugs and Doses CBD was provided in pure form and in the described composition. Two four-point dose-response curves were done, one for the pure form CBD and one for the described composition. Ten mice were tested at each dose. (Mice were not re-used.) Compounds were injected intraperitoneally. Testing was done 2 hours after injection. Drugs were injected at a constant volume, and were diluted as necessary using a vehicle of 1:1:18 (Cremophor:alcohol:saline). Dilution is necessary to achieve volumes large enough for injection. Doses were: 0 (vehicle), 25, 50, 100, 200 mg/kg. A 400 mg/kg dose was added later to extend the standard CBD curve.
MES Procedure The MES stimulus consisted of 0.2 sec of 60 Hz since-wave current administered at an intensity of 50 mA via corneal electrodes. The percentage of mice protected against the tonic hindlimb extension component of the resulting seizure was measured. Mice were then euthanized following the procedure.

[2] = Toxicity Assessment: ataxia, Loscher scale, Initial Tests; conditions: just before the MES test, i.p., standard CBD at any dose
Experimental: as §1, §2
Toxicity Assessment Ataxia (impaired movement) was assessed using the Loscher scale and was done just before the MES test.

[3] = MES test in mice, Further Tests; conditions: Mus musculus, ip, MES 50 mA, 60 Hz, 0.2 sec, i.p., 2 hours after injection, Litchfield and Wilcoxon method, read-out: ED50 (effective dose to protect 50% of mice)
Excerpt: (§3) Subjects Male, CF-1 male mice (18-25 grams) were used as subjects. They were housed under standard conditions in a vivarium at the University of Toronto (CCBR). They were given 2 days (minimum) to acclimate before testing began.
(§4) Drugs and Doses CBD was provided in the form of: 1) standard CBD isolate, 2) CBD in DHA/EPA without emulsification (2% DHA, 2% EPA, 12% “stabilizer”), 3) CBD emulsified in DHA/EPA to produce larger particles (66.2 nm diameter) and 4) CBD emulsified in DHA/EPA to produce smaller particles (32.7 nm diameter). Drugs were injected intraperitoneally at a constant volume, and were diluted as necessary using a vehicle of 1:1:18 (Cremophor:alcohol:saline). Dilution is necessary to achieve volumes large enough for injection. Doses of CBD ranged from 0 (vehicle) to 400 mg/kg. As in our past studies, the MES stimulus was given 2 hours after injection. Dose-response curves were done for each formulation.
MES Procedure The MES stimulus consisted of 0.2 sec of 60 Hz since-wave current administered at an intensity of 50 mA via corneal electrodes. The percentage of mice protected against the tonic hindlimb extension component of the resulting seizure was measured. […]
(§5) Toxicity Assessment Ataxia (impaired movement) was assessed using the Loscher scale and was done just before the MES test. Loscher scores of 2-5 were scored a “toxicity present”. […]

[4] = Toxicity Assessment: ataxia, Loscher scale, Further Tests
Excerpt: as §3, §4, §5
The Litchfield/Wilcoxon method could not be applied to the toxicity data for technical reasons, so TD50s were calculated from line plots.

C=C(C)[C@@H]1CCC(C)=C[C@H]1c1c(O)cc(CCCCC)cc1O [regular CBD, cannabidiol]
ED50 [1]: 162 mg/kg
signs of toxicity [2]: No mice showed any signs of toxicity
ED50 [3]: 146 mg/kg
TD25 ([4]; Loscher scores of 2-5 = toxicity present, i.p., highest dose tested): 400 mg/kg
TD50 at 2 h ([4]; mouse, in vivo, ip, speculated to be higher than the highest dose tested): > 400 mg/kg
